The record followed here is ChEMBL document CHEMBL1201862, “PubChem BioAssay data set” (2004).

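Grown in 96-well plates, cells were treated for 48 hours with each compound at five concentrations. Insufficient inhibition: endpoint recorded as highest concentration tested. Abbreviation: GI50, concentration required for 50% inhibition of growth.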 Active and inactive are the calls of the source. No stated cut-off is given here; in the data, active = GI50 up to about 1.1 µM and inactive = higher.

Among the test systems are UACC-62; SF-539; NCI/ADR-RES; MCF7; SK-MEL-2; SN12C; IGROV-1; OVCAR-5; ACHN; OVCAR-4; MDA-MB-231; NCI-H522; CCRF-CEM; MDA-N; SF-268; HCT-116; HCC 2998; K562; RXF 393; NCI-H23.
What all share (experiment): NCI-60 cell line screen, 48 h

Regarding `N#CC1=C2SCCN2C(=O)C(C#N)C12CCCCC2` (stereo not given), the GI50 in the test on UACC-62, with SF-539, with NCI/ADR-RES, in the test with MCF7, in the test on SK-MEL-2 and in the test with SN12C was > 100 µM (inactive) in each case. In addition, the GI50 in the test with IGROV-1, in the test on OVCAR-5, in the test with ACHN, with OVCAR-4, with MDA-MB-231 and in the test on NCI-H522 was > 100 µM (inactive) throughout. Besides, the GI50 in the test on CCRF-CEM, in the test on MDA-N, in the test with SF-268, in the test on HCT-116, in the test on HCC 2998 and with K562 was > 100 µM (inactive) in each case. Also, the GI50 with RXF 393 is 59.4 µM (inactive); with NCI-H23 it was > 100 µM (inactive).

`C=CC1(c2ccc(Br)cc2)OCCCO1`: the GI50 in the test with UACC-62, in the test with SF-539, in the test on NCI/ADR-RES, in the test with MCF7, in the test on SK-MEL-2 and in the test on SN12C was > 100 µM (inactive) throughout. The GI50 in the test with IGROV-1, in the test on OVCAR-5, in the test with ACHN, in the test with OVCAR-4, in the test on MDA-MB-231 and in the test on NCI-H522 was > 100 µM (inactive) throughout. For the same molecule, the GI50 in the test with CCRF-CEM, in the test with MDA-N, in the test with SF-268, in the test on HCT-116, with HCC 2998 and in the test with K562 was > 100 µM (inactive) throughout. Moreover, the GI50 in the test on RXF 393 and in the test on NCI-H23 was > 100 µM (inactive) each time.

For the molecule `CC1(C)CCCC(C)(C2CCC3(C)C2C(O)CC2C4(C)CCC(O)C(C)(C)C4CCC23C)O1` (stereo not given), the GI50 in the test on UACC-62 is > 100 µM (inactive); in the test with SF-539, 42.9 µM (inactive); in the test with NCI/ADR-RES, 55 µM (inactive); in the test on MCF7 it was 61.1 µM (inactive); in the test on SK-MEL-2, > 100 µM (inactive); with SN12C, > 100 µM (inactive). In addition, the GI50 in the test with IGROV-1 was > 100 µM (inactive); with OVCAR-5, > 100 µM (inactive); in the test on ACHN, 56.9 µM (inactive); in the test with OVCAR-4, 66.2 µM (inactive); in the test with MDA-MB-231, 34.5 µM (inactive); in the test on NCI-H522, 75.5 µM (inactive). For the same molecule, the GI50 is > 100 µM (inactive) in the test on CCRF-CEM; > 100 µM (inactive) in the test with MDA-N; 51.1 µM (inactive) with SF-268; > 100 µM (inactive) with HCT-116; > 100 µM (inactive) in the test on HCC 2998; 91.8 µM (inactive) with K562. For the same molecule, the GI50 in the test on RXF 393 was 3.72 µM (inactive); in the test on NCI-H23, > 100 µM (inactive).

`S=c1sscc1N1CCSc2ssc(=S)c21`: the GI50 was 67.1 µM (inactive) in the test with UACC-62; 42.3 µM (inactive) in the test on SF-539; 28.4 µM (inactive) with NCI/ADR-RES; 32.7 µM (inactive) in the test on MCF7; 78.2 µM (inactive) in the test with SK-MEL-2; 25.8 µM (inactive) in the test with SN12C. Besides, the GI50 with IGROV-1 is 21.1 µM (inactive); with OVCAR-5, > 100 µM (inactive); with ACHN, 30.5 µM (inactive); in the test on OVCAR-4, 7.45 µM (inactive); with MDA-MB-231 it was 30.1 µM (inactive); with NCI-H522, 19.8 µM (inactive). Further, the GI50 is > 100 µM (inactive) in the test with CCRF-CEM; > 100 µM (inactive) in the test on MDA-N; 35.9 µM (inactive) with SF-268; 87.1 µM (inactive) in the test on HCT-116; > 100 µM (inactive) with HCC 2998; > 100 µM (inactive) in the test on K562. For the same molecule, the GI50 was 47.3 µM (inactive) in the test on RXF 393 and 19.9 µM (inactive) in the test on NCI-H23.

For `CCN(CC)C1Oc2cc3c(cc2C(c2cc(OC)c(OC)c(OC)c2)C1C)OCO3` (stereo not given), the GI50 in the test on UACC-62 is 1.06 µM (active); with SF-539, 0.457 µM (active); in the test with NCI/ADR-RES, 0.219 µM (active); with MCF7, 0.435 µM (active); in the test on SK-MEL-2 it was 0.887 µM (active); with SN12C, 1.52 µM (inactive). The GI50 with IGROV-1 is 1.52 µM (inactive); in the test with OVCAR-5 it was 2 µM (inactive); with ACHN, 2.14 µM (inactive); with OVCAR-4, 16.1 µM (inactive); in the test on MDA-MB-231 it was 3.15 µM (inactive); with NCI-H522, 0.344 µM (active). Also, the GI50 is 0.406 µM (active) in the test on CCRF-CEM; 0.0836 µM (active) with MDA-N; 3.61 µM (inactive) in the test on SF-268; 0.465 µM (active) in the test with HCT-116; 0.809 µM (active) in the test with HCC 2998; 0.308 µM (active) in the test with K562. Also, the GI50 in the test on RXF 393 was 0.839 µM (active); with NCI-H23, 1.53 µM (inactive).

With `C=C(C)[C@@H]1CC[C@@H](C)[C@](O)([C@@H]2C[C@@H]([C@H](COC(=O)c3ccccc3)OC(=O)c3ccccc3)OC2=O)C1`, the GI50 in the test on UACC-62, in the test with SF-539, in the test on NCI/ADR-RES, in the test on MCF7, with SK-MEL-2 and in the test with SN12C was > 100 µM (inactive) throughout. Further, the GI50 in the test with IGROV-1 is > 100 µM (inactive); with OVCAR-5 it was > 100 µM (inactive); in the test with ACHN it was > 100 µM (inactive); in the test with OVCAR-4 it was 59.4 µM (inactive); in the test on MDA-MB-231, > 100 µM (inactive); with NCI-H522, > 100 µM (inactive). Also, the GI50 with CCRF-CEM, in the test with MDA-N, in the test with SF-268, in the test with HCT-116, in the test on HCC 2998 and in the test with K562 was > 100 µM (inactive) throughout. The GI50 in the test with RXF 393 and in the test on NCI-H23 was > 100 µM (inactive) throughout.

As for `CC12CC(OC(=O)[C@]1(C)O)[C@@H]([C@]1(O)CC[C@H]3[C@@H]4C[C@H]5O[C@]56[C@@H](O)C=CC(=O)[C@]6(C)[C@H]4CC[C@@]31C)C2` (stereo not given in full), the GI50 with UACC-62 was 14.6 µM (inactive); in the test on SF-539 it was 2.78 µM (inactive); in the test with NCI/ADR-RES it was 5.35 µM (inactive); in the test on MCF7, 3.08 µM (inactive); in the test with SK-MEL-2, 6.08 µM (inactive); in the test on SN12C, 6.19 µM (inactive). Moreover, the GI50 was 17.3 µM (inactive) in the test with IGROV-1; 11 µM (inactive) in the test on OVCAR-5; 10.9 µM (inactive) in the test on ACHN; 11.2 µM (inactive) in the test on OVCAR-4; 5.2 µM (inactive) in the test on MDA-MB-231; 1.16 µM (inactive) in the test with NCI-H522. In addition, the GI50 with CCRF-CEM is 1.33 µM (inactive); with MDA-N, 7.21 µM (inactive); in the test on SF-268, 5.41 µM (inactive); in the test on HCT-116 it was 3.63 µM (inactive); with HCC 2998 it was 16.2 µM (inactive); with K562, 3.17 µM (inactive). The results for the GI50 in the test on RXF 393 and in the test with NCI-H23 were 3.01 µM (inactive) and 4.08 µM (inactive), respectively.

Take `Cc1cc(-n2nnc(C(=O)O)c2-c2ccccc2)c2ccc(Cl)cc2n1`: the GI50 with UACC-62, in the test with SF-539, in the test with NCI/ADR-RES, with MCF7, with SK-MEL-2 and with SN12C was > 100 µM (inactive) in each case. The GI50 with IGROV-1, in the test on OVCAR-5, with ACHN, with OVCAR-4, in the test on MDA-MB-231 and in the test on NCI-H522 was > 100 µM (inactive) in each case. For the same molecule, the GI50 in the test on CCRF-CEM was > 100 µM (inactive); with MDA-N it was > 100 µM (inactive); in the test on SF-268, > 100 µM (inactive); in the test on HCT-116, > 100 µM (inactive); with HCC 2998, > 100 µM (inactive); in the test with K562, 58.1 µM (inactive). Also, the GI50 with RXF 393 and in the test with NCI-H23 was > 100 µM (inactive) each time.

Take `COc1cc(OC)cc(Oc2nc3ccccc3nc2C(F)(F)F)c1`: the GI50 was > 100 µM (inactive) in the test with UACC-62; 52.5 µM (inactive) in the test with SF-539; > 100 µM (inactive) in the test with NCI/ADR-RES; > 100 µM (inactive) with MCF7; 48.6 µM (inactive) in the test with SK-MEL-2; > 100 µM (inactive) in the test on SN12C. For the same molecule, the GI50 with IGROV-1 is 5.89 µM (inactive); with OVCAR-5, 45.1 µM (inactive); in the test with ACHN it was > 100 µM (inactive); in the test on OVCAR-4, > 100 µM (inactive); in the test with MDA-MB-231, 14.7 µM (inactive); in the test with NCI-H522, > 100 µM (inactive). In addition, the GI50 was 0.986 µM (active) with CCRF-CEM; 3.66 µM (inactive) with MDA-N; 68.4 µM (inactive) in the test on SF-268; > 100 µM (inactive) with HCT-116; > 100 µM (inactive) with HCC 2998; 9.25 µM (inactive) in the test on K562. Further, the GI50 was 19.5 µM (inactive) in the test with RXF 393 and > 100 µM (inactive) in the test on NCI-H23.

For the molecule `CCCCN(C)C(=O)C1=C(C)NC(C)=C(C(=O)N(C)CCCC)C1`, the GI50 with UACC-62, with SF-539, in the test with NCI/ADR-RES, in the test with MCF7, with SK-MEL-2 and in the test with SN12C was > 100 µM (inactive) throughout. Also, the GI50 in the test with IGROV-1, in the test on OVCAR-5, in the test with ACHN, in the test with OVCAR-4, in the test on MDA-MB-231 and in the test with NCI-H522 was > 100 µM (inactive) throughout. Besides, the GI50 is 66.2 µM (inactive) with CCRF-CEM; > 100 µM (inactive) in the test on MDA-N; > 100 µM (inactive) in the test on SF-268; > 100 µM (inactive) in the test on HCT-116; > 100 µM (inactive) in the test on HCC 2998; 54.3 µM (inactive) in the test on K562. The GI50 with RXF 393 and in the test with NCI-H23 was > 100 µM (inactive) throughout.
